Assay results published in patent US6451736B1, “Substituted aromatic thiocarboxylic acid amides and their use as herbicides” (Bayer Aktiengesellschaft, priority 1994, dated 2002).

Tests used:
Format in all cases: in vivo
[1] = system: Abuthilon; assay: Pre-emergence test/greenhouse; settings: Table B, after three weeks
Protocol: (§1) To produce a suitable preparation of active compound, 1 part by weight of active compound is mixed with the stated amount of solvent, the stated amount of emulsifier is added and the concentrate is diluted with water to the desired concentration.
(§2) Seeds of the test plants are sown in normal soil and, after 24 hours, watered with the preparation of active compound. It is expedient to keep constant the amount of water per unit area. The concentration of the active compound in the preparation is of no importance, only the amount of active compound applied per unit area being decisive. After three weeks, the degree of damage to the plants is rated in % damage in comparison to the development of the untreated control. The figures denote:
(§3) 0%=no action (like untreated control)

[2] = system: Amaranthus; assay: Pre-emergence test/greenhouse; settings: Table B, after three weeks
Protocol: as §1, §2, §3

[3] = system: Chenopodium; assay: Pre-emergence test/greenhouse; settings: Table B, after three weeks
Protocol: as §1, §2, §3

[4] = system: Maize; assay: Pre-emergence test/greenhouse; settings: Table B, after three weeks
Protocol: as §1, §2, §3

[5] = system: Matricaria; assay: Pre-emergence test/greenhouse; settings: Table B, after three weeks
Protocol: as §1, §2, §3

[6] = system: Portulaca; assay: Pre-emergence test/greenhouse; settings: Table B, after three weeks
Protocol: as §1, §2, §3

[7] = system: Solanum; assay: Pre-emergence test/greenhouse; settings: Table B, after three weeks
Protocol: as §1, §2, §3

[8] = system: Wheat; assay: Pre-emergence test/greenhouse; settings: Table B, after three weeks
Protocol: as §1, §2, §3

[9] = system: Abuthilon; assay: Post-emergence test/greenhouse; settings: Table C, after three weeks
Protocol: as §1
(§4) Test plants which have a height of 5-15 cm are sprayed with the preparation of active compound in such a way as to apply the particular amounts of active compound desired per unit area. After three weeks, the degree of damage to the plants is rated in % damage in comparison to the development of the untreated control.
(§5) 0%=no action (like intreated control)

[10] = system: Amaranthus; assay: Post-emergence test/greenhouse; settings: Table C, after three weeks
Protocol: as §1, §4, §5

[11] = system: Chenopodium; assay: Post-emergence test/greenhouse; settings: Table C, after three weeks
Protocol: as §1, §4, §5

[12] = system: Maize; assay: Post-emergence test/greenhouse; settings: Table C, after three weeks
Protocol: as §1, §4, §5

[13] = system: Solanum; assay: Post-emergence test/greenhouse; settings: Table C, after three weeks
Protocol: as §1, §4, §5

[14] = system: Veronica; assay: Post-emergence test/greenhouse; settings: Table C, after three weeks
Protocol: as §1, §4, §5

[15] = system: Wheat; assay: Post-emergence test/greenhouse; settings: Table C, after three weeks
Protocol: as §1, §4, §5

Row | Compound | degree of damage, Abuthilon ([9]; 15 g/ha) | degree of damage, Amaranthus ([10]; 15 g/ha) | degree of damage, Chenopodium ([11]; 15 g/ha) | degree of damage, Maize ([12]; 15 g/ha) | degree of damage, Solanum ([13]; 15 g/ha) | degree of damage, Abuthilon ([1]; 60 g/ha) | degree of damage, Amaranthus ([2]; 60 g/ha) | degree of damage, Chenopodium ([3]; 60 g/ha) | degree of damage, Maize ([4]; 60 g/ha) | degree of damage, Matricaria ([5]; 60 g/ha) | degree of damage, Portulaca ([6]; 60 g/ha) | degree of damage, Solanum ([7]; 60 g/ha) | degree of damage, Wheat ([8]; 60 g/ha) | degree of damage, Abuthilon ([9]; 60 g/ha) | degree of damage, Amaranthus ([10]; 60 g/ha) | degree of damage, Chenopodium ([11]; 60 g/ha) | degree of damage, Maize ([12]; 60 g/ha) | degree of damage, Solanum ([13]; 60 g/ha) | degree of damage, Veronica ([14]; 60 g/ha) | degree of damage, Wheat ([15]; 60 g/ha) | further results
1 | CCS(=O)(=O)Nc1cc(-n2nc3n(c2=O)CCCC3)c(F)cc1C(N)=S [Example 1, 2-(2-fluoro-5-ethylsulphonylamino-4-thiocarbamoyl-phenyl)-5,6,7,8-tetrahydro-1,2,4-triazolo[4,3-a]pyridin-3(2H)-one] | 100% | 95% | 95% | 50% | 100% |  |  |  |  |  |  |  |  |  |  |  |  |  |  |  | degree of damage, Abuthilon ([1]; 125 g/ha): 100%; degree of damage, Amaranthus ([2]; 125 g/ha): 100%; degree of damage, Chenopodium ([3]; 125 g/ha): 100%; degree of damage, Maize ([4]; 125 g/ha): 0%; degree of damage, Matricaria ([5]; 125 g/ha): 95%; degree of damage, Portulaca ([6]; 125 g/ha): 100%; degree of damage, Solanum ([7]; 125 g/ha): 100%; degree of damage, Wheat ([8]; 125 g/ha): 0%; degree of damage, Veronica ([14]; 15 g/ha): 100%; degree of damage, Wheat ([15]; 15 g/ha): 10%
2 | Cn1c(C(F)F)nn(-c2cc(F)c(C(N)=S)cc2F)c1=S [Example 8] |  |  |  |  |  | 100% | 100% | 100% | 0% | 95% | 95% | 100% | 40% | 100% | 100% | 100% | 30% | 100% | 100% | 10% | 
3 | CCS(=O)(=O)Nc1cc(-n2nc(C(F)F)n(C)c2=O)c(F)cc1C(N)=S [Example 9] |  |  |  |  |  | 100% | 100% | 100% | 0% | 95% | 90% | 100% | 0% | 100% | 100% | 100% | 30% | 100% | 100% | 10% | 
4 | CCOc1cc(-n2nc3n(c2=O)CCCC3)c(F)cc1C(N)=S [Example 12] |  |  |  |  |  | 70% | 70% | 100% | 0% | 95% | 95% | 70% | 20% |  |  |  |  |  |  |  | degree of damage, Abuthilon ([9]; 8 g/ha): 100%; degree of damage, Amaranthus ([10]; 8 g/ha): 100%; degree of damage, Chenopodium ([11]; 8 g/ha): 95%; degree of damage, Maize ([12]; 8 g/ha): 30%; degree of damage, Solanum ([13]; 8 g/ha): 100%; degree of damage, Veronica ([14]; 8 g/ha): 100%; degree of damage, Wheat ([15]; 8 g/ha): 10%
5 | CCS(=O)(=O)Nc1cc(-n2nc(C3CC3)n(C)c2=O)c(F)cc1C(N)=S [Example 13] | 95% | 100% | 80% | 30% | 100% | 100% | 100% | 100% | 0% | 70% | 90% | 100% | 0% |  |  |  |  |  |  |  | degree of damage, Veronica ([14]; 15 g/ha): 90%; degree of damage, Wheat ([15]; 15 g/ha): 0%
6 | CCn1c(C(F)(F)F)nn(-c2cc(N(C)S(=O)(=O)CC)c(C(N)=S)cc2F)c1=O [Example 16] |  |  |  |  |  | 95% | 20% | 100% | 0% | 90% | 80% | 80% | 10% | 95% | 100% | 100% | 60% | 100% | 100% | 20% | 
